In patent US12503475B2 (Centessa Pharmaceuticals (UK) Limited, priority 2020, dated 2025):

Biological target: T1, human orexin type 2 receptor (hOX2R) (Homo sapiens, UniProt O43614)
T1 construct: expressed in transfected cells
T1 sequence (O43614 1-444): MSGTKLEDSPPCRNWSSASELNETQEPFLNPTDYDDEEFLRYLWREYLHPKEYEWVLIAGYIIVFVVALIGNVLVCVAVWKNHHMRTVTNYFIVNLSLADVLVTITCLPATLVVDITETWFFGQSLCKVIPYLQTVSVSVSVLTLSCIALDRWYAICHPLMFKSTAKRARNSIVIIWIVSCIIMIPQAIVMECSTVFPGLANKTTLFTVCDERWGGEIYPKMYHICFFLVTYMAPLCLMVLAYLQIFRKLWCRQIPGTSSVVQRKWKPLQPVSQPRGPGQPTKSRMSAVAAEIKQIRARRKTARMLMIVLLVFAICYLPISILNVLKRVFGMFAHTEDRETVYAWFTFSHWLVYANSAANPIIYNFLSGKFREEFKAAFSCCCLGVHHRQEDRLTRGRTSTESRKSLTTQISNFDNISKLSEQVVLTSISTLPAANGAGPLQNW
Experiment: Measurement of orexin type 2 receptor agonist activity (FLIPR calcium fluorescence)
Assay type: cell-based
Settings: CHO cells expressing hOX2R, FLIPR calcium fluorescence; for EC50: read-out: hOx2 pEC50 (converted); for Emax: CHO, read-out: hOx2 Emax (%)
Outline: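 Agonism was read as fluorescence in cells stably expressing human OX2R. E. is the response at 10 μM relative to orexin A as full agonist (100%).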

EC50 [nM]	Emax [%]	SMILES
1 to 10	90 to 100	N#CC1(C(=O)N2CC3(CC3)[C@H](NS(=O)(=O)CF)[C@@H]2Cc2cccc(-c3cc(F)cc(F)c3)c2F)CCC1 [Compound 231, N-((6S,7S)-5-(1-cyanocyclobutane-1-carbonyl)-6-((2,3′,5′-trifluoro-[1,1′-biphenyl]-3-yl)methyl)-5-azaspiro[2.4]heptan-7-yl)-1-fluoromethanesulfonamide]
1 to 10	90 to 100	O=C(NC[C@@H]1CCO1)N1CC2(CC2)[C@H](NS(=O)(=O)C(F)F)[C@@H]1Cc1cccc(-c2ccccc2)c1F [Compound 368, (6S,7S)-7-((difluoromethyl)sulfonamido)-6-((2-fluoro-[1,1′-biphenyl]-3-yl)methyl)-N-(((S)-oxetan-2-yl)methyl)-5-azaspiro[2.4]heptane-5-carboxamide]
1 to 10	90 to 100	C[C@@H](NC(=O)N1CC2(CC2)[C@H](NS(=O)(=O)CF)[C@@H]1Cc1cccc(-c2ccccc2)c1F)C(F)F [Compound 219, (6S,7S)-N-((R)-1,1-difluoropropan-2-yl)-6-((2-fluoro-[1,1′-biphenyl]-3-yl)methyl)-7-((fluoromethyl)sulfonamido)-5-azaspiro[2.4]heptane-5-carboxamide]
10 to 100	90 to 100	CC(C)C(=O)N1CC2(CC2)[C@H](NS(=O)(=O)N(C)C)[C@@H]1Cc1cccc(-c2ccccc2)c1 (racemic) [Compound 304]
1 to 10	90 to 100	O=C(NCC(F)F)N1CC2(CC2)[C@H](NS(=O)(=O)C(F)F)[C@@H]1Cc1cc(F)cc(-c2cc(F)cc(F)c2)c1F [Compound 387]
10 to 100	90 to 100	CS(=O)(=O)N[C@@H]1[C@H](Cc2cccc(-c3ccccc3)c2F)N(C(=O)NC23CC(F)(C2)C3)CC12CC2 [Compound 319, (6S,7S)-6-((2-fluoro-[1,1′-biphenyl]-3-yl)methyl)-N-(3-fluorobicyclo[1.1.1]pentan-1-yl)-7-(methylsulfonamido)-5-azaspiro[2.4]heptane-5-carboxamide]
1 to 10	90 to 100	O=C([C@H]1CCO1)N1CC2(CC2)[C@H](NS(=O)(=O)C(F)F)[C@@H]1Cc1cccc(-c2cc(F)cc(F)c2)c1 [Compound 214, N-((6S,7S)-6-((3′,5′-difluoro-[1,1′-biphenyl]-3-yl)methyl)-5-((R)-oxetane-2-carbonyl)-5-azaspiro[2.4]heptan-7-yl)-1,1-difluoromethanesulfonamide]
0.0794 to 1	90 to 100	C[C@H](CF)NC(=O)N1CC2(CC2)[C@H](NS(=O)(=O)CF)[C@@H]1Cc1cc(F)cc(-c2ccccc2)c1F [Compound 375, (6S,7S)-6-((2,5-difluoro-[1,1′-biphenyl]-3-yl)methyl)-7-((fluoromethyl)sulfonamido)-N-((R)-1-fluoropropan-2-yl)-5-azaspiro[2.4]heptane-5-carboxamide]
1 to 10	90 to 100	O=C([C@H](O)CF)N1CC2(CC2)[C@H](NS(=O)(=O)CF)[C@@H]1Cc1cc(F)cc(-c2cc(F)cc(F)c2)c1F [Compound 373, 1-fluoro-N-((6S,7S)-5-((S)-3-fluoro-2-hydroxypropanoyl)-6-((2,3′,5,5′-tetrafluoro-[1,1′-biphenyl]-3-yl)methyl)-5-azaspiro[2.4]heptan-7-yl)methanesulfonamide]
10 to 100	80 to 90	CC(C)(O)C(=O)N1CC2(CC2)[C@H](NS(C)(=O)=O)[C@@H]1Cc1cccc(-c2ccccc2F)c1F [Compound 361, N-((6S,7S)-6-((2,2'-difluoro-[1,1′-biphenyl]-3-yl)methyl)-5-(2-hydroxy-2-methylpropanoyl)-5-azaspiro[2.4]heptan-7-yl)methanesulfonamide]
1 to 10	90 to 100	CS(=O)(=O)N[C@@H]1[C@H](Cc2cccc(-c3ccccc3)c2)N(C(=O)C2CCC2)CC12CC2 (racemic) [Compound 302, N-(-6-([1,1′-biphenyl]-3-ylmethyl)-5-(cyclobutanecarbonyl)-5-azaspiro[2.4]heptan-7-yl)methanesulfonamide]

The next lines start with the molecule.

SMILES	EC50 [nM]	Emax [%]
COC1CN(C(=O)N2CC3(CC3)[C@H](NS(=O)(=O)N(C)C)[C@@H]2Cc2cccc(-c3ccccc3)c2F)C1 [Compound 118, N-((6S,7S)-6-((2-fluoro-[1,1′-biphenyl]-3-yl)methyl)-5-(3-methoxyazetidine-1-carbonyl)-5-azaspiro[2.4]heptan-7-yl)-N,N-dimethylsulfuric diamide]	1 to 10	90 to 100
CN(C1CC1)S(=O)(=O)N[C@@H]1[C@H](Cc2cccc(-c3ccccc3)c2)N(C(=O)[C@H]2CCO2)CC12CC2 [Compound 97]	10 to 100	80 to 90
O=C([C@H]1CCO1)N1CC2(CC2)[C@H](NS(=O)(=O)/C=C/F)[C@@H]1Cc1cccc(-c2ccccc2)c1F [Compound 204, (E)-2-fluoro-N-((6S,7S)-6-((2-fluoro-[1,1′-biphenyl]-3-yl)methyl)-5-((R)-oxetane-2-carbonyl)-5-azaspiro[2.4]heptan-7-yl)ethene-1-sulfonamide]	10 to 100	90 to 100
CC(C)(O)C(=O)N1CC2(CC2)[C@H](NS(=O)(=O)CF)[C@@H]1Cc1cccc(-c2cccc(F)c2)c1F [Compound 177, N-((6S,7S)-6-((2,3′-difluoro-[1,1′-biphenyl]-3-yl)methyl)-5-(2-hydroxy-2-methylpropanoyl)-5-azaspiro[2.4]heptan-7-yl)-1-fluoromethanesulfonamide]	1 to 10	90 to 100
CS(=O)(=O)N[C@@H]1[C@H](Cc2cccc(-c3ccccc3)c2)N(C(=O)[C@H](O)C2CC2)CC12CC2 [Compound 61, N-((6S,7S)-6-([1,1′-biphenyl]-3-ylmethyl)-5-((R)-2-cyclopropyl-2-hydroxyacetyl)-5-azaspiro[2.4]heptan-7-yl)methanesulfonamide]	1 to 10	90 to 100
O=C([C@H]1CCO1)N1CC2(CC2)[C@H](NS(=O)(=O)CF)[C@@H]1Cc1cccc(-c2ccccc2)c1 [Compound 48, N-((6S,7S)-6-([1,1′-biphenyl]-3-ylmethyl)-5-((R)-oxetane-2-carbonyl)-5-azaspiro[2.4]heptan-7-yl)-1-fluoromethanesulfonamide]	–	80 to 90
O=C([C@H]1CCO1)N1CC2(CC2)[C@H](NS(=O)(=O)C(F)F)[C@@H]1Cc1cccc(-c2cccc(F)c2)c1 [Compound 213, 1,1-difluoro-N-((6S,7S)-6-((3′-fluoro-[1,1′-biphenyl]-3-yl)methyl)-5-((R)-oxetane-2-carbonyl)-5-azaspiro[2.4]heptan-7-yl)methanesulfonamide]	1 to 10	90 to 100
CS(=O)(=O)NC1C(Cc2cccc(-c3cccc(F)c3)c2)N(C(=O)C2(O)CCC2)CC12CC2 (racemic) [Compound 51, N-(6-((3′-fluoro-[1,1′-biphenyl]-3-yl)methyl)-5-(1-hydroxycyclobutane-1-carbonyl)-5-zaspiro[2.4]heptan-7-yl)methanesulfonamide]	1 to 10	90 to 100
CN(C)S(=O)(=O)N[C@@H]1[C@H](Cc2cccc(-c3ccccc3)c2F)N(C(=O)[C@H](O)C(F)(F)F)CC12CC2 [Compound 119, N-((6S,7S)-6-((2-fluoro-[1,1′-biphenyl]-3-yl)methyl)-5-((S)-3,3,3-trifluoro-2-hydroxypropanoyl)-5-azaspiro[2.4]heptan-7-yl)-N,N-dimethylsulfuric diamide]	0.0794 to 1	90 to 100
[2H]C([2H])([2H])c1cccc(-c2cccc(C[C@H]3[C@@H](NS(=O)(=O)C(F)F)C4(CC4)CN3C(=O)[C@H]3CCO3)c2F)c1 [Compound 199, 1,1-difluoro-N-((6S,7S)-6-((2-fluoro-3′-(methyl-d3)-[1,1′-biphenyl]-3-yl)methyl)-5-((R)-oxetane-2-carbonyl)-5-azaspiro[2.4]heptan-7-yl)methanesulfonamide]	0.0794 to 1	90 to 100
CC(C)(O)C(=O)N1CC2(CC2)[C@H](NS(=O)(=O)C(F)F)[C@@H]1Cc1cccc(-c2cccc(F)c2)c1F [Compound 164, N-((6S,7S)-6-((2,3′-difluoro-[1,1′-biphenyl]-3-yl)methyl)-5-(2-hydroxy-2-methylpropanoyl)-5-azaspiro[2.4]heptan-7-yl)-1,1-difluoromethanesulfonamide]	10 to 100	80 to 90
O=C([C@H]1CCO1)N1CC2(CC2)[C@H](NS(=O)(=O)C(F)F)[C@@H]1Cc1cc(F)cc(-c2cccc(F)c2)c1F [Compound 176, 1,1-difluoro-N-((6S,7S)-5-((R)-oxetane-2-carbonyl)-6-((2,3′,5-trifluoro-[1,1′-biphenyl]-3-yl)methyl)-5-azaspiro[2.4]heptan-7-yl)methanesulfonamide]	1 to 10	90 to 100
CS(=O)(=O)N[C@@H]1[C@H](Cc2cccc(-c3ccccc3)c2)N(C(=O)[C@H]2CCO2)CC12CC2 [Compound 55, N-((6S,7S)-6-([1,1′-biphenyl]-3-ylmethyl)-5-((R)-oxetane-2-carbonyl)-5-azaspiro[2.4]heptan-7-yl)methanesulfonamide]	10 to 100	90 to 100
CS(=O)(=O)N[C@@H]1[C@H](Cc2cccc(-c3ccccc3)c2F)N(C(=O)N2CC[C@H]2CF)CC12CC2 [Compound 80, N-((6S,7S)-6-((2-fluoro-[1,1′-biphenyl]-3-yl)methyl)-5-((S)-2-(fluoromethyl)azetidine-1-carbonyl)-5-azaspiro[2.4]heptan-7-yl)methanesulfonamide]	0.0794 to 1	90 to 100
